# From paper PMC10216478, “Development of a Non-Peptide Angiotensin II Type 1 Receptor Ligand by Structural Modification of Olmesartan as a Biased Agonist” (Biomedicines, 2023)
# Target: T1, AT1 L112A receptor (Rattus norvegicus, UniProt P25095, L112A)
# T1 construct: expressed in transfected cells; host or cells: COS7
# T1 sequence (P25095 1-359 L112A): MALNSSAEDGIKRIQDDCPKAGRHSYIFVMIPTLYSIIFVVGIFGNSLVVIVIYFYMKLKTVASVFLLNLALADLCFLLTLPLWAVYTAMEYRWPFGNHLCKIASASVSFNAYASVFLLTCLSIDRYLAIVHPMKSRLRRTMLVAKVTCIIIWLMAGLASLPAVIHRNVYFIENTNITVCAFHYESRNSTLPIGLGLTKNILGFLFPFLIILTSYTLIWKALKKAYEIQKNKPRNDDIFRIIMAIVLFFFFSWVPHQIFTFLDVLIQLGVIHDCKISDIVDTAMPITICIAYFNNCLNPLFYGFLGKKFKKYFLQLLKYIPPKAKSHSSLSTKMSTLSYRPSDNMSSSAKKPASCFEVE
# Assay: IP production assay in COS7 cells expressing AT1-L112A receptor
# Format: cell-based
# Conditions: 1 µM ligands or 0.1 µM Ang II, 30 min, n = 5, vs. (-)
# Description: The synthetic rat AT1 receptor gene, which was cloned in the shuttle expression vector pMT-2, was used for expression and mutagenesis, as described previously. […] In the experiments, cells were grown without a cell-growth supplement. To express the AT1 receptor protein, 10 µg of purified plasmid DNA per 10^7 cells was used in the transfection. Wild-type and mutated AT1 receptors were transiently transfected into cells using Lipofectamine 2000 liposomal reagent (Roche Applied Science, Penzberg, Germany). Cells were plated and grown and were 70–90% confluent at the time of transfection. We incubated plasmid DNA (10 µg)–lipid (10 µL) complexes for 5 min at room temperature and added and incubated the complexes with cells for 24 h. We then analyzed the parameters in transfected cells. […] Transfected cells that had been cultured for 48–72 h were harvested. Cell membranes were prepared using the nitrogen Parr bomb disruption or freeze–thaw methods.
# Ligand (such as agonist or antagonist)-induced IP production through the AT1 receptor in transfected COS7 cells transiently expressing the AT1 receptor was measured to evaluate cell signaling as a second messenger for controlling blood pressure, since the increases in the intracellular Ca^2+ concentration were the result of IP accumulation, which indicated vasoconstriction. As a surrogate model with higher levels of AT1 receptor expression, COS7 cells are suitable for IP measurement because it is easy to detect differences in IP production. Cells were labeled for 24 h with [^3H]-myoinositol at 37 °C in DMEM containing 10% FBS. Next, the cells were washed with buffer 3 times and incubated with a medium containing 10 mM LiCl for 20 min; 0.1 µM Ang II or 1 µM ligands were added and incubation was continued for another 30 min at 37 °C. After incubation, the medium was removed, and total soluble IP was extracted from the cells using the perchloric acid extraction method, as described previously. Cells were plated at a field density of 5 × 10^3 cells/cm^2 in 60 mm dishes and cultured in a fresh growth medium at 37 °C in a DMEM 5% CO2 incubator. […] The culture medium was changed 48 h after transfection and 1.5 mL of 1 μCi/mL of [^3H]-myoinositol was added to each 60-mm dish at 37 °C in DMEM containing 10% FBS. After labeling, the cells were washed with buffer 3 times and incubated with a medium containing 10 mM LiCl for 20 min. The indicated concentration of ligands was added and incubation was continued for an additional 30 min at 37 °C. After incubation, the medium was removed, and total soluble IP was extracted from the cells using the perchloric acid extraction method. Total IP production was expressed as the sum of radioactivity, as described previously.
row,Compound,Effect on IP production
1,CCCc1nc(C(C)(C)O)c(C(=O)O)n1Cc1ccc(-c2cc(Cc3ccc(O)cc3)ccc2-c2nnn[nH]2)cc1 [R781253],"none of the compounds (R239470, R781253, and R794847) affected IP production"
2,CCCc1nc(C(C)(C)O)c(C(N)=O)n1Cc1ccc(-c2cc(Cc3ccc(O)cc3)ccc2-c2nnn[nH]2)cc1 [R794847],"none of the compounds (R239470, R781253, and R794847) affected IP production"
3,CCCc1nc(C(C)(C)O)c(C(N)=O)n1Cc1ccc(-c2ccccc2-c2nnn[nH]2)cc1 [R239470],"none of the compounds (R239470, R781253, and R794847) affected IP production"
4,"CCCc1nc(C(C)(C)O)c(C(=O)O)n1Cc1ccc(-c2ccccc2-c2nnn[nH]2)cc1 [Olmesartan, olmesartan]",significant reduction in basal IP production levels
